# Data from PubChem BioAssay (NCI).
#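 Each compound was tested at five concentrations against cells in 96-well plates for 48 hours. Here, GI50 denotes the concentration required for 50% inhibition of growth. The concentration for full growth arrest is given as TGI.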
# Tests used:
# Test in all cases: NCI anticancer screen, dose series, 48 h
# CAKI-1 renal = system: CAKI-1 renal
# DU-145 prostate = system: DU-145 prostate
# NCI-H23 lung = system: NCI-H23 lung
# UACC-257 melanoma = system: UACC-257 melanoma
# SF-295 CNS = system: SF-295 CNS
# HOP-62 NSCLC = system: HOP-62 NSCLC
# SK-MEL-2 melanoma = system: SK-MEL-2 melanoma
# HCC-2998 colon = system: HCC-2998 colon
# MDA-N = system: MDA-N
# BT-549 breast = system: BT-549 breast
# EKVX NSCLC = system: EKVX NSCLC
smiles,measurement,setting,value
Nc1ccc2c(c1)C(=O)N1CCC[C@H]1C(=O)N2,TGI,CAKI-1 renal,> 100 µM
same,TGI,DU-145 prostate,> 100 µM
same,TGI,NCI-H23 lung,> 100 µM
same,TGI,UACC-257 melanoma,> 100 µM
same,TGI,SF-295 CNS,> 100 µM
same,TGI,HOP-62 NSCLC,> 100 µM
same,TGI,SK-MEL-2 melanoma,> 100 µM
same,TGI,HCC-2998 colon,> 100 µM
same,TGI,MDA-N,> 100 µM
same,TGI,BT-549 breast,> 100 µM
same,TGI,EKVX NSCLC,> 100 µM
CCOC(=O)CCC(NC(=O)Cc1ccc(Nc2nc3cc(F)c(F)cc3nc2C(=O)OCC)cc1)C(=O)OCC (configuration not stated),TGI,CAKI-1 renal,> 100 µM
same,TGI,DU-145 prostate,> 100 µM
same,TGI,NCI-H23 lung,> 100 µM
same,TGI,UACC-257 melanoma,> 100 µM
same,TGI,SF-295 CNS,> 100 µM
same,TGI,HOP-62 NSCLC,> 100 µM
same,TGI,SK-MEL-2 melanoma,60.4 µM
same,TGI,HCC-2998 colon,> 100 µM
same,TGI,MDA-N,> 100 µM
same,TGI,BT-549 breast,> 100 µM
same,TGI,EKVX NSCLC,> 100 µM
CCO/C(O)=C(/C(=N)N1CCOCC1)C(=O)Nc1ccc(F)cc1,TGI,CAKI-1 renal,> 100 µM
same,TGI,DU-145 prostate,> 100 µM
same,TGI,NCI-H23 lung,> 100 µM
same,TGI,UACC-257 melanoma,> 100 µM
same,TGI,SF-295 CNS,> 100 µM
same,TGI,HOP-62 NSCLC,> 100 µM
same,TGI,SK-MEL-2 melanoma,> 100 µM
same,TGI,HCC-2998 colon,> 100 µM
same,TGI,MDA-N,> 100 µM
same,TGI,BT-549 breast,> 100 µM
same,TGI,EKVX NSCLC,> 100 µM
CN1C(=O)c2ccccc2OC12C=Cc1c(ccc3ccccc13)O2 (configuration not stated),TGI,CAKI-1 renal,33.3 µM
same,TGI,DU-145 prostate,> 45 µM
same,TGI,NCI-H23 lung,16 µM
same,TGI,UACC-257 melanoma,36.3 µM
same,TGI,SF-295 CNS,12.7 µM
same,TGI,HOP-62 NSCLC,27.3 µM
same,TGI,SK-MEL-2 melanoma,22 µM
same,TGI,HCC-2998 colon,16 µM
same,TGI,MDA-N,10.4 µM
same,TGI,BT-549 breast,> 56.6 µM
same,TGI,EKVX NSCLC,10.7 µM
O=c1[nH]nnc2c1sc1ncccc12,TGI,CAKI-1 renal,> 100 µM
same,TGI,DU-145 prostate,> 100 µM
same,TGI,NCI-H23 lung,> 100 µM
same,TGI,UACC-257 melanoma,> 100 µM
same,TGI,SF-295 CNS,> 100 µM
same,TGI,HOP-62 NSCLC,> 100 µM
same,TGI,SK-MEL-2 melanoma,> 100 µM
same,TGI,HCC-2998 colon,> 100 µM
same,TGI,MDA-N,> 100 µM
same,TGI,BT-549 breast,> 100 µM
same,TGI,EKVX NSCLC,> 100 µM
C/C=C/C(CC(O)(C(F)(F)F)C(F)(F)F)=N/NC(N)=S,TGI,CAKI-1 renal,> 10 µM
same,TGI,DU-145 prostate,> 10 µM
same,TGI,NCI-H23 lung,> 10 µM
same,TGI,UACC-257 melanoma,> 10 µM
same,TGI,SF-295 CNS,> 10 µM
same,TGI,HOP-62 NSCLC,> 10 µM
same,TGI,SK-MEL-2 melanoma,> 10 µM
same,TGI,HCC-2998 colon,> 10 µM
same,TGI,MDA-N,> 10 µM
same,TGI,BT-549 breast,> 10 µM
same,TGI,EKVX NSCLC,> 10 µM
Brc1ccc2[nH]cc(-c3csc(-c4c[nH]c5ccccc45)n3)c2c1,TGI,CAKI-1 renal,9.2 µM
same,TGI,DU-145 prostate,9.15 µM
same,TGI,NCI-H23 lung,8.21 µM
same,TGI,UACC-257 melanoma,17.8 µM
same,TGI,SF-295 CNS,6.32 µM
same,TGI,HOP-62 NSCLC,16.4 µM
same,TGI,SK-MEL-2 melanoma,9.36 µM
same,TGI,HCC-2998 colon,3.96 µM
same,TGI,MDA-N,7.65 µM
same,TGI,BT-549 breast,22.7 µM
same,TGI,EKVX NSCLC,12 µM
COc1cc(OC)c2nc(C)c(CCCl)c(Cl)c2c1,TGI,CAKI-1 renal,> 100 µM
same,TGI,DU-145 prostate,> 100 µM
same,TGI,NCI-H23 lung,> 100 µM
same,TGI,UACC-257 melanoma,> 100 µM
same,TGI,SF-295 CNS,> 100 µM
same,TGI,HOP-62 NSCLC,> 100 µM
same,TGI,SK-MEL-2 melanoma,> 100 µM
same,TGI,HCC-2998 colon,> 100 µM
same,TGI,MDA-N,> 100 µM
same,TGI,BT-549 breast,> 100 µM
same,TGI,EKVX NSCLC,> 100 µM
O=C1C=CC(=O)c2c1ccc1c3ccccc3n(CCCCCn3c4ccccc4c4ccc5c(c43)C(=O)C=CC5=O)c21,TGI,CAKI-1 renal,13.7 µM
same,TGI,DU-145 prostate,> 100 µM
same,TGI,NCI-H23 lung,32.8 µM
same,TGI,UACC-257 melanoma,39.5 µM
same,TGI,SF-295 CNS,> 100 µM
same,TGI,HOP-62 NSCLC,> 100 µM
same,TGI,SK-MEL-2 melanoma,44.8 µM
same,TGI,HCC-2998 colon,> 80.8 µM
same,TGI,MDA-N,40.1 µM
same,TGI,BT-549 breast,82 µM
same,TGI,EKVX NSCLC,> 94.3 µM
O=C1/C(=C/c2ccc(Br)s2)NC(=S)N1c1ccccc1,TGI,CAKI-1 renal,> 100 µM
same,TGI,DU-145 prostate,> 100 µM
same,TGI,NCI-H23 lung,> 100 µM
same,TGI,UACC-257 melanoma,> 100 µM
same,TGI,SF-295 CNS,> 100 µM
same,TGI,HOP-62 NSCLC,> 100 µM
same,TGI,SK-MEL-2 melanoma,> 100 µM
same,TGI,HCC-2998 colon,> 100 µM
same,TGI,MDA-N,> 100 µM
same,TGI,BT-549 breast,> 100 µM
same,TGI,EKVX NSCLC,> 100 µM
CC(C)(C)OC(=O)NC1CCCCC1NC(=O)C(=O)NC1CCCCC1NC(=O)OC(C)(C)C (configuration not stated),TGI,CAKI-1 renal,> 100 µM
same,TGI,DU-145 prostate,> 100 µM
same,TGI,NCI-H23 lung,> 100 µM
same,TGI,UACC-257 melanoma,> 100 µM
same,TGI,SF-295 CNS,> 100 µM
same,TGI,HOP-62 NSCLC,80.6 µM
same,TGI,SK-MEL-2 melanoma,> 100 µM
same,TGI,HCC-2998 colon,> 100 µM
same,TGI,MDA-N,> 100 µM
same,TGI,BT-549 breast,> 100 µM
same,TGI,EKVX NSCLC,> 100 µM
COc1cc(C2c3cc4c(cc3OC(N3CCCCC3)C2C)OCO4)cc(OC)c1O (configuration not stated),TGI,CAKI-1 renal,25.2 µM
same,TGI,DU-145 prostate,49.6 µM
same,TGI,NCI-H23 lung,> 66.9 µM
same,TGI,UACC-257 melanoma,41.9 µM
same,TGI,SF-295 CNS,13.4 µM
same,TGI,HOP-62 NSCLC,25.9 µM
same,TGI,SK-MEL-2 melanoma,25.2 µM
same,TGI,HCC-2998 colon,32.7 µM
same,TGI,MDA-N,5.6 µM
same,TGI,BT-549 breast,90.5 µM
same,TGI,EKVX NSCLC,> 83.4 µM
CN1CCc2c([nH]c3ccccc23)C1,TGI,CAKI-1 renal,> 100 µM
same,TGI,DU-145 prostate,> 100 µM
same,TGI,NCI-H23 lung,> 100 µM
same,TGI,UACC-257 melanoma,> 100 µM
same,TGI,SF-295 CNS,> 100 µM
same,TGI,HOP-62 NSCLC,> 100 µM
same,TGI,SK-MEL-2 melanoma,> 100 µM
same,TGI,HCC-2998 colon,> 100 µM
same,TGI,MDA-N,> 100 µM
same,TGI,BT-549 breast,> 100 µM
same,TGI,EKVX NSCLC,> 100 µM
CN(C)c1ccc(/C=c2/c3ccccc3n3c2c2c([n+]3C)CCCC2)cc1,TGI,CAKI-1 renal,4.8 µM
same,TGI,DU-145 prostate,2.39 µM
same,TGI,NCI-H23 lung,6.49 µM
same,TGI,UACC-257 melanoma,2.88 µM
same,TGI,SF-295 CNS,0.653 µM
same,TGI,HOP-62 NSCLC,1.58 µM
same,TGI,SK-MEL-2 melanoma,0.59 µM
same,TGI,HCC-2998 colon,0.375 µM
same,TGI,MDA-N,1.27 µM
same,TGI,BT-549 breast,2.19 µM
same,TGI,EKVX NSCLC,0.353 µM
Cc1ccc(/C=N/Nc2cc(C)c3cccc(C)c3n2)s1,TGI,CAKI-1 renal,> 100 µM
same,TGI,DU-145 prostate,> 100 µM
same,TGI,NCI-H23 lung,35.2 µM
same,TGI,UACC-257 melanoma,58.9 µM
same,TGI,SF-295 CNS,21.8 µM
same,TGI,HOP-62 NSCLC,25.7 µM
same,TGI,SK-MEL-2 melanoma,33.2 µM
same,TGI,HCC-2998 colon,22.7 µM
same,TGI,MDA-N,25.1 µM
same,TGI,BT-549 breast,20.8 µM
same,TGI,EKVX NSCLC,38.2 µM
CC1=NN(c2nc(N)nc(/C(C#N)=C\c3ccc([N+](=O)[O-])s3)n2)C(C)(C)C1,TGI,CAKI-1 renal,> 21 µM
same,TGI,DU-145 prostate,0.597 µM
same,TGI,NCI-H23 lung,3.32 µM
same,TGI,UACC-257 melanoma,0.544 µM
same,TGI,SF-295 CNS,23.1 µM
same,TGI,HOP-62 NSCLC,1.75 µM
same,TGI,SK-MEL-2 melanoma,1.66 µM
same,TGI,HCC-2998 colon,4.4 µM
same,TGI,MDA-N,2.6 µM
same,TGI,BT-549 breast,2.44 µM
same,TGI,EKVX NSCLC,4.28 µM
O=[N+]([O-])c1ccc(CN(CCCl)OCCCl)cc1,TGI,CAKI-1 renal,> 100 µM
same,TGI,DU-145 prostate,> 100 µM
same,TGI,NCI-H23 lung,> 100 µM
same,TGI,UACC-257 melanoma,> 100 µM
same,TGI,SF-295 CNS,> 100 µM
same,TGI,HOP-62 NSCLC,> 100 µM
same,TGI,SK-MEL-2 melanoma,> 100 µM
same,TGI,HCC-2998 colon,> 100 µM
same,TGI,MDA-N,> 100 µM
same,TGI,BT-549 breast,> 100 µM
same,TGI,EKVX NSCLC,> 100 µM
Cc1ccnc2[nH]c(-c3ccc4ccccc4c3)cc(=O)c12,GI50,CAKI-1 renal,2.39 µM
same,TGI,CAKI-1 renal,14.4 µM
same,TGI,DU-145 prostate,35.1 µM
same,TGI,NCI-H23 lung,15.3 µM
same,TGI,UACC-257 melanoma,32.8 µM
same,GI50,SF-295 CNS,1.49 µM
same,TGI,SF-295 CNS,10.9 µM
same,TGI,HOP-62 NSCLC,12.6 µM
same,TGI,SK-MEL-2 melanoma,28.2 µM
same,TGI,HCC-2998 colon,19.4 µM
same,GI50,MDA-N,0.206 µM
same,TGI,MDA-N,0.448 µM
same,TGI,BT-549 breast,31.8 µM
same,TGI,EKVX NSCLC,26.8 µM
CC1CC(OP(=O)(OCc2ccccc2)OCc2ccccc2)[C@@H](OCc2ccccc2)C(OCc2ccccc2)C1OCc1ccccc1 (some centres not stated),TGI,CAKI-1 renal,> 100 µM
same,TGI,DU-145 prostate,> 100 µM
same,TGI,NCI-H23 lung,> 100 µM
same,TGI,UACC-257 melanoma,> 100 µM
same,TGI,SF-295 CNS,> 100 µM
same,TGI,HOP-62 NSCLC,> 100 µM
same,TGI,SK-MEL-2 melanoma,> 100 µM
same,TGI,HCC-2998 colon,> 100 µM
same,TGI,MDA-N,> 100 µM
same,TGI,BT-549 breast,> 100 µM
same,TGI,EKVX NSCLC,> 100 µM
